Patent publication US8003658B2, “Quinazoline derivatives for inhibiting cancer cell growth and method for the preparation thereof” (Hanmi Holdings Co., Ltd., priority 2004, dated 2011)
Read-outs that look alike come from different tables or passages of the source.

Assays:
A431 (ATCC: CRL-1555) = test: Test of cancer cell growth inhibition (SRB), A431; conditions: read-out: IC50 A431
SK-Br3 (ATCC: HTB-30) = test: Test of cancer cell growth inhibition (SRB), SK-Br3; conditions: read-out: IC50 SK-Br-3
[1] = EGFR overexpressed A431, 72 hours, SRB

Structure (SMILES) | IC50 (A431 (ATCC: CRL-1555); [1]) [nM] | IC50 (SK-Br3 (ATCC: HTB-30); Homo sapiens, SK-BR-3, 72 h) [nM] | IC50 (A431 (ATCC: CRL-1555); Homo sapiens, A-431, 72 h) [nM] | IC50 (SK-Br3 (ATCC: HTB-30); Erb-B2 overexpressed SK-Br3, 72 hours, SRB) [nM]
C=CC(=O)N1CCC(C(=O)Nc2ccc3ncnc(Nc4ccc(OCc5ccccn5)c(Cl)c4)c3c2)CC1 [Example 156, 1-acryloyl-piperidine-4-carboxylic acid {4-[3-chloro-4-(pyridin-2-ylmethoxy)-phenylamino]-quinazolin-6-yl}-amide] | 513 | 19 | – | –
C=CC(=O)N1CCC[C@H]1C(=O)Nc1ccc2ncnc(Nc3ccc(Oc4ccc(C)nc4)c(C)c3)c2c1 [Example 157, (2S)-1-acryloyl-pyrrolidine-2-carboxylic acid {4-[3-methyl-4-(6-methyl-pyridin-3-yloxy)-phenylamino]-quinazolin-6-yl}-amide] | – | 123 | 5590 | –
C#Cc1cccc(Nc2ncnc3ccc(NC(=O)[C@@H]4CCCN4C(=O)C=C)cc23)c1 [Example 158, (2S)-1-acryloyl-pyrrolidine-2-carboxylic acid [4-(3-ethynyl-phenylamino)-quinazolin-6-yl]-amide] | – | 48 | 583 | –
C=CC(=O)N1CCC[C@H]1C(=O)Nc1ccc2ncnc(Nc3ccc(F)c(Cl)c3)c2c1 [Example 159, (2S)-1-acryloyl-pyrrolidine-2-carboxylic acid [4-(3-chloro-4-fluoro-phenylamino)-quinazolin-6-yl]-amide] | – | 223 | 462 | –
C=CC(=O)N1C[C@H](S(=O)(=O)CC)C[C@H]1C(=O)Nc1ccc2ncnc(Nc3ccc(OCc4ccccn4)c(Cl)c3)c2c1 [Example 160, (2S,4R)-1-acryloyl-4-ethanesulfonyl-pyrrolidine-2-carboxylic acid {4-[3-chloro-4-(pyridin-2-ylmethoxy)-phenylamino]-quinazolin-6-yl}-amide] | – | 437 | 6930 | –
C=CC(=O)N1C[C@H](OC)C[C@H]1C(=O)Nc1ccc2ncnc(Nc3ccc(OCc4ccccn4)c(Cl)c3)c2c1 [Example 161, (2S,4R)-1-acryloyl-4-methoxy-pyrrolidine-2-carboxylic acid {4-[3-chloro-4-(pyridin-2-ylmethoxy)-phenylamino]-quinazolin-6-yl}-amide] | – | 19 | 680 | –
C=CC(=O)N1CCCC(C(=O)Nc2ccc3ncnc(Nc4ccc(OCc5ccccn5)c(Cl)c4)c3c2)C1 (stereo not drawn) [Example 162, 1-acryloyl-piperidine-3-carboxylic acid {4-[3-chloro-4-(pyridin-2-ylmethoxy)-phenylamino]-quinazolin-6-yl}-amide] | 286 | 28 | – | –
C=CC(=O)N1CC(C(=O)Nc2ccc3ncnc(Nc4ccc(OCc5ccccn5)c(Cl)c4)c3c2)C1 [Example 163, 1-acryloyl-azetidine-3-carboxylic acid {4-[3-chloro-4-(pyridin-2-ylmethoxy)-phenylamino]-quinazolin-6-yl}-amide] | 1400 | 60 | – | –
C=CC(=O)N1CCCCC1C(=O)Nc1ccc2ncnc(Nc3ccc(OCc4ccccn4)c(Cl)c3)c2c1 (stereo not drawn) [Example 164, 1-acryloyl-piperidine-2-carboxylic acid {4-[3-chloro-4-(pyridin-2-ylmethoxy)-phenylamino]-quinazolin-6-yl}-amide] | 105 | 12 | – | –
C=CC(=O)N1CCC[C@H]1C(=O)Nc1cc2c(Nc3ccc(OCc4ccccn4)c(Cl)c3)ncnc2cc1F [Example 165, (2S)-1-acryloyl-pyrrolidine-2-carboxylic acid {4-[3-chloro-4-(pyridin-2-ylmethoxy)-phenylamino]-7-fluoro-quinazolin-6-yl}-amide] | – | 5 | 215 | –
C=CC(=O)N1CCC[C@H]1C(=O)Nc1cc2c(Nc3ccc(OCc4ccccn4)c(C)c3)ncnc2cc1OC [Example 168, (2S)-1-acryloyl-pyrrolidine-2-carboxylic acid {7-methoxy-4-[3-methyl-4-(pyridin-2-ylmethoxy)-phenylamino]-quinazolin-6-yl}-amide] | – | 6 | 68 | –
C=CC(=O)N1CCCC1CC(=O)Nc1cc2c(Nc3ccc(OCc4ccccn4)c(Cl)c3)ncnc2cc1OC (stereo not drawn) [Example 169, 2-(1-acryloyl-pyrrolidin-2-yl)-N-{4-[3-chloro-4-(pyridin-2-ylmethoxy)-phenylamino]-7-methoxy-quinazolin-6-yl}-acetamide] | – | 24 | 79 | –
C=CC(=O)N1CCC[C@H]1C(=O)Nc1cc2c(Nc3ccc(OCc4ccccn4)c(Cl)c3)ncnc2cc1OCC [Example 170, (2S)-1-acryloyl-pyrrolidine-2-carboxylic acid {4-[3-chloro-4-(pyridin-2-ylmethoxy)-phenylamino]-7-ethoxy-quinazolin-6-yl}-amide] | – | 2 | 199 | –
C=CC(=O)N1CCC[C@H]1C(=O)Nc1cc2c(Nc3ccc(OCc4ccccn4)c(Cl)c3)ncnc2cc1SCC [Example 171, (2S)-1-acryloyl-pyrrolidine-2-carboxylic acid {4-[3-chloro-4-(pyridin-2-ylmethoxy)-phenylamino]-7-ethylsulfanyl-quinazolin-6-yl}-amide] | – | 31 | 306 | –
C=CC(=O)N1CCC[C@H]1C(=O)Nc1cc2c(Nc3ccc(OCc4ccccn4)c(Cl)c3)ncnc2cc1OCC1CC1 [Example 172, (2S)-1-acryloyl-pyrrolidine-2-carboxylic acid {4-[3-chloro-4-(pyridin-2-ylmethoxy)-phenylamino]-7-cyclopropylmethoxy-quinazolin-6-yl}-amide] | – | 4520 | ≥ 10000 | –
C=CC(=O)N1CCC[C@H]1C(=O)Nc1cc2c(Nc3ccc(OCc4ccccn4)c(Cl)c3)ncnc2cc1OC1CCCC1 [Example 173, (2S)-1-acryloyl-pyrrolidine-2-carboxylic acid {4-[3-chloro-4-(pyridin-2-ylmethoxy)-phenylamino]-7-cyclopentyloxy-quinazolin-6-yl}-amide] | – | 29 | 552 | –
C=CC(=O)NCCC(=O)Nc1ccc2ncnc(Nc3ccc(OCc4ccncc4)c(Cl)c3)c2c1 [Example 174, N-(2-{4-[3-chloro-4-(pyridin-4-ylmethoxy)-phenylamino]-quinazolin-6-ylcarbamoyl}-ethyl)-acrylamide] | – | 35 | 956 | –
COc1cc2ncnc(Nc3ccc(OCc4ccccn4)c(Cl)c3)c2cc1NC(=O)[C@@H]1CCCN1C(=O)C=CCN(C)C [Example 175, (2S)-1-(4-dimethylamino-buten-2-oyl)-pyrrolidine-2-carboxylic acid {4-[3-chloro-4-(pyridin-2-ylmethoxy)-phenylamino]-7-methoxy-quinazolin-6-yl}-amide] | 48 | – | – | 26
C=CC(=O)N1CCC[C@H]1C(=O)Nc1cc2c(Nc3ccc(OCc4ccccn4)c(Cl)c3)ncnc2cc1Cl [Example 176, (2S)-1-acryloyl-pyrrolidine-2-carboxylic acid {7-chloro-4-[3-chloro-4-(pyridin-2-ylmethoxy)-phenylamino]-quinazolin-6-yl}-amide] | – | 34 | 517 | –
C=CC(=O)N1CCC[C@H]1C(=O)Nc1cc2c(Nc3ccc(OCc4ccccn4)c(C)c3)ncnc2cc1F [Example 177, (2S)-1-acryloyl-pyrrolidine-2-carboxylic acid {7-fluoro-4-[3-methyl-4-(pyridin-2-ylmethoxy)-phenylamino]-quinazolin-6-yl}-amide] | – | 9 | 78 | –
C=CC(=O)N1CC=C[C@H]1C(=O)Nc1cc2c(Nc3ccc(OCc4ccccn4)c(Cl)c3)ncnc2cc1OC [Example 179, (2S)-1-acryloyl-2,5-dihydro-1H-pyrrol-2-carboxylic acid {4-[3-chloro-4-(pyridin-2-ylmethoxy)-phenylamino]-7-methoxy-quinazolin-6-yl}-amide] | – | 17 | 121 | –
C=CC(=O)N1CSC[C@H]1C(=O)Nc1cc2c(Nc3ccc(OCc4ccccn4)c(Cl)c3)ncnc2cc1OC [Example 180, (4R)-3-acryloyl-thiazolidin-4-carboxylic acid {4-[3-chloro-4-(pyridin-2-ylmethoxy)-phenylamino]-7-methoxy-quinazolin-6-yl}-amide] | – | 63 | 438 | –
C=CC(=O)N1CCC1C(=O)Nc1ccc2ncnc(Nc3ccc(OCc4ccccn4)c(Cl)c3)c2c1 (stereo not drawn) [Example 181, 1-acryloyl-azetidine-2-carboxylic acid {4-[3-chloro-4-(pyridin-2-ylmethoxy)-phenylamino]-quinazolin-6-yl}-amide] | 218 | 13 | – | –
C=CC(=O)N1CCC1C(=O)Nc1cc2c(Nc3ccc(OCc4ccccn4)c(Cl)c3)ncnc2cc1OC (stereo not drawn) [Example 182, 1-acryloyl-azetidine-2-carboxylic acid {4-[3-chloro-4-(pyridin-2-ylmethoxy)-phenylamino]-7-methoxy-quinazolin-6-yl}-amide] | – | 9 | 128 | –
C=CC(=O)N1CCC[C@H]1C(=O)Nc1cc2c(Nc3ccc(OCc4ccccn4)c(Cl)c3)ncnc2cc1N(C)C [Example 184, (2S)-1-acryloyl-pyrrolidine-2-carboxylic acid {4-[3-chloro-4-(pyridin-2-ylmethoxy)-phenylamino]-7-dimethylamino-quinazolin-6-yl}-amide] | – | 114 | 1420 | –
C=CC(=O)N1CCC[C@H]1C(=O)Nc1cc2c(Nc3ccc4c(cnn4Cc4ccccn4)c3)ncnc2cc1OC [Example 185, (2S)-1-acryloyl-pyrrolidine-2-carboxylic acid [7-methoxy-4-(1-pyridin-2-ylmethyl-1H-indazol-5-ylamino)-quinazolin-6-yl]-amide] | – | 3 | 22 | –
C=CC(=O)N1CCC[C@H]1C(=O)Nc1cc2c(Nc3ccc(OCc4ccccn4)c(C)c3)ncnc2cc1OCC [Example 186, (2S)-1-acryloyl-pyrrolidine-2-carboxylic acid {4-[3-methyl-4-(pyridin-2-ylmethoxy)-phenylamino]-7-ethoxy-quinazolin-6-yl}-amide] | – | 8 | 26 | –
